Assay results taken from the NIST ThermoML archive (doi:10.1021/acs.jced.6b00575).
Numbers after ± are expanded uncertainties.

Conditions: 313.15 K; 101.33 kPa; Liquid; Concentric cylinders viscometry
CC(=O)[NH+](C)C.O=S(=O)([N-]S(=O)(=O)C(F)(F)F)C(F)(F)F [N,N-dimethylacetamidium bis(trifluoromethanesulfonyl)amide] gave a viscosity of 67.83 ± 1.4 mPa·s.
Compound CC(=O)N(C)C [N,N-dimethylethanamide] has a viscosity of 0.772 ± 0.017 mPa·s.
Work on CCC(=O)N(C)C [N,N-dimethylpropionamide] yielded a viscosity of 0.778 ± 0.018 mPa·s.
With CN(C)C=O [dimethylformamide] the viscosity was 0.684 ± 0.015 mPa·s.

Same assay, conditions: 313.15 K; 101.33 kPa; Liquid; Vibrating tube method
In the case of CCC(=O)[NH+](C)C.O=S(=O)([N-]S(=O)(=O)C(F)(F)F)C(F)(F)F, the mass density is reported as 1504.73 ± 1.6 kg/m3.
CC(=O)[NH+](C)C.O=S(=O)([N-]S(=O)(=O)C(F)(F)F)C(F)(F)F [N,N-dimethylacetamidium bis(trifluoromethanesulfonyl)amide] gave a mass density of 1549.8 ± 1.7 kg/m3.
CC(=O)N(C)C [N,N-dimethylethanamide] gave a mass density of 922.26 ± 0.95 kg/m3.
For CCC(=O)N(C)C [N,N-dimethylpropionamide], the mass density was 907.04 ± 3.7 kg/m3.
Work on CN(C)C=O [dimethylformamide] yielded a mass density of 929.5 ± 0.13 kg/m3.

Same assay, conditions: 323.15 K; 101.33 kPa; Liquid; Alternating current cell with electrodes
Work on CCC(=O)[NH+](C)C.O=S(=O)([N-]S(=O)(=O)C(F)(F)F)C(F)(F)F yielded an electrical conductivity of 0.585 ± 0.012 S/m.
In the case of CC(=O)[NH+](C)C.O=S(=O)([N-]S(=O)(=O)C(F)(F)F)C(F)(F)F [N,N-dimethylacetamidium bis(trifluoromethanesulfonyl)amide], the electrical conductivity is reported as 0.574 ± 0.011 S/m.

Same assay, conditions: 323.15 K; 101.33 kPa; Liquid; Concentric cylinders viscometry
In the case of CCC(=O)[NH+](C)C.O=S(=O)([N-]S(=O)(=O)C(F)(F)F)C(F)(F)F, the viscosity is reported as 39.33 ± 0.82 mPa·s.
Compound CC(=O)[NH+](C)C.O=S(=O)([N-]S(=O)(=O)C(F)(F)F)C(F)(F)F [N,N-dimethylacetamidium bis(trifluoromethanesulfonyl)amide] has a viscosity of 44.71 ± 0.93 mPa·s.
Compound CC(=O)N(C)C [N,N-dimethylethanamide] has a viscosity of 0.692 ± 0.015 mPa·s.
Work on CCC(=O)N(C)C [N,N-dimethylpropionamide] yielded a viscosity of 0.696 ± 0.017 mPa·s.
CN(C)C=O [dimethylformamide] gave a viscosity of 0.615 ± 0.013 mPa·s.

Same assay, conditions: 323.15 K; 101.33 kPa; Liquid; Vibrating tube method
In the case of CCC(=O)[NH+](C)C.O=S(=O)([N-]S(=O)(=O)C(F)(F)F)C(F)(F)F, the mass density is reported as 1494.43 ± 1.6 kg/m3.
CC(=O)[NH+](C)C.O=S(=O)([N-]S(=O)(=O)C(F)(F)F)C(F)(F)F [N,N-dimethylacetamidium bis(trifluoromethanesulfonyl)amide] showed a mass density of 1539.4 ± 1.7 kg/m3.
With CC(=O)N(C)C [N,N-dimethylethanamide] the mass density was 912.99 ± 0.94 kg/m3.
In the case of CCC(=O)N(C)C [N,N-dimethylpropionamide], the mass density is reported as 898.13 ± 3.6 kg/m3.
In the case of CN(C)C=O [dimethylformamide], the mass density is reported as 919.86 ± 0.14 kg/m3.

Same assay, conditions: 333.15 K; 101.33 kPa; Liquid; Alternating current cell with electrodes
For CCC(=O)[NH+](C)C.O=S(=O)([N-]S(=O)(=O)C(F)(F)F)C(F)(F)F, the electrical conductivity was 0.787 ± 0.016 S/m.
For CC(=O)[NH+](C)C.O=S(=O)([N-]S(=O)(=O)C(F)(F)F)C(F)(F)F [N,N-dimethylacetamidium bis(trifluoromethanesulfonyl)amide], the electrical conductivity was 0.782 ± 0.016 S/m.

Same assay, conditions: 333.15 K; 101.33 kPa; Liquid; Concentric cylinders viscometry
In the case of CCC(=O)[NH+](C)C.O=S(=O)([N-]S(=O)(=O)C(F)(F)F)C(F)(F)F, the viscosity is reported as 27.84 ± 0.58 mPa·s.
Compound CC(=O)[NH+](C)C.O=S(=O)([N-]S(=O)(=O)C(F)(F)F)C(F)(F)F [N,N-dimethylacetamidium bis(trifluoromethanesulfonyl)amide] has a viscosity of 31.31 ± 0.65 mPa·s.
CC(=O)N(C)C [N,N-dimethylethanamide] gave a viscosity of 0.614 ± 0.014 mPa·s.
CCC(=O)N(C)C [N,N-dimethylpropionamide] showed a viscosity of 0.618 ± 0.015 mPa·s.
For CN(C)C=O [dimethylformamide], the viscosity was 0.535 ± 0.012 mPa·s.

Same assay, conditions: 333.15 K; 101.33 kPa; Liquid; Vibrating tube method
CCC(=O)[NH+](C)C.O=S(=O)([N-]S(=O)(=O)C(F)(F)F)C(F)(F)F showed a mass density of 1484.21 ± 1.6 kg/m3.
Compound CC(=O)[NH+](C)C.O=S(=O)([N-]S(=O)(=O)C(F)(F)F)C(F)(F)F [N,N-dimethylacetamidium bis(trifluoromethanesulfonyl)amide] has a mass density of 1529.1 ± 1.7 kg/m3.
CC(=O)N(C)C [N,N-dimethylethanamide] showed a mass density of 903.68 ± 0.93 kg/m3.
In the case of CCC(=O)N(C)C [N,N-dimethylpropionamide], the mass density is reported as 889.17 ± 3.6 kg/m3.
With CN(C)C=O [dimethylformamide] the mass density was 910.17 ± 0.14 kg/m3.

Same assay, conditions: 343.15 K; 101.33 kPa; Liquid; Alternating current cell with electrodes
CCC(=O)[NH+](C)C.O=S(=O)([N-]S(=O)(=O)C(F)(F)F)C(F)(F)F gave an electrical conductivity of 1.01 ± 0.02 S/m.
In the case of CC(=O)[NH+](C)C.O=S(=O)([N-]S(=O)(=O)C(F)(F)F)C(F)(F)F [N,N-dimethylacetamidium bis(trifluoromethanesulfonyl)amide], the electrical conductivity is reported as 1.02 ± 0.02 S/m.

Same assay, conditions: 343.15 K; 101.33 kPa; Liquid; Concentric cylinders viscometry
CCC(=O)[NH+](C)C.O=S(=O)([N-]S(=O)(=O)C(F)(F)F)C(F)(F)F showed a viscosity of 20.58 ± 0.43 mPa·s.
CC(=O)[NH+](C)C.O=S(=O)([N-]S(=O)(=O)C(F)(F)F)C(F)(F)F [N,N-dimethylacetamidium bis(trifluoromethanesulfonyl)amide] showed a viscosity of 22.85 ± 0.48 mPa·s.
With CC(=O)N(C)C [N,N-dimethylethanamide] the viscosity was 0.553 ± 0.013 mPa·s.
With CCC(=O)N(C)C [N,N-dimethylpropionamide] the viscosity was 0.556 ± 0.013 mPa·s.
CN(C)C=O [dimethylformamide] gave a viscosity of 0.484 ± 0.011 mPa·s.

Same assay, conditions: 343.15 K; 101.33 kPa; Liquid; Vibrating tube method
CCC(=O)[NH+](C)C.O=S(=O)([N-]S(=O)(=O)C(F)(F)F)C(F)(F)F showed a mass density of 1474.06 ± 1.6 kg/m3.
Work on CC(=O)[NH+](C)C.O=S(=O)([N-]S(=O)(=O)C(F)(F)F)C(F)(F)F [N,N-dimethylacetamidium bis(trifluoromethanesulfonyl)amide] yielded a mass density of 1518.6 ± 1.6 kg/m3.
With CC(=O)N(C)C [N,N-dimethylethanamide] the mass density was 894.31 ± 0.92 kg/m3.
For CCC(=O)N(C)C [N,N-dimethylpropionamide], the mass density was 880.17 ± 3.6 kg/m3.
For CN(C)C=O [dimethylformamide], the mass density was 900.41 ± 0.14 kg/m3.

Same assay, conditions: 353.15 K; 101.33 kPa; Liquid; Alternating current cell with electrodes
CCC(=O)[NH+](C)C.O=S(=O)([N-]S(=O)(=O)C(F)(F)F)C(F)(F)F gave an electrical conductivity of 1.28 ± 0.026 S/m.
CC(=O)[NH+](C)C.O=S(=O)([N-]S(=O)(=O)C(F)(F)F)C(F)(F)F [N,N-dimethylacetamidium bis(trifluoromethanesulfonyl)amide] gave an electrical conductivity of 1.29 ± 0.026 S/m.

Same assay, conditions: 353.15 K; 101.33 kPa; Liquid; Concentric cylinders viscometry
With CCC(=O)[NH+](C)C.O=S(=O)([N-]S(=O)(=O)C(F)(F)F)C(F)(F)F the viscosity was 15.67 ± 0.33 mPa·s.
Compound CC(=O)[NH+](C)C.O=S(=O)([N-]S(=O)(=O)C(F)(F)F)C(F)(F)F [N,N-dimethylacetamidium bis(trifluoromethanesulfonyl)amide] has a viscosity of 17.35 ± 0.36 mPa·s.
For CC(=O)N(C)C [N,N-dimethylethanamide], the viscosity was 0.502 ± 0.011 mPa·s.
With CCC(=O)N(C)C [N,N-dimethylpropionamide] the viscosity was 0.504 ± 0.012 mPa·s.
Compound CN(C)C=O [dimethylformamide] has a viscosity of 0.436 ± 0.01 mPa·s.

Same assay, conditions: 353.15 K; 101.33 kPa; Liquid; Vibrating tube method
CCC(=O)[NH+](C)C.O=S(=O)([N-]S(=O)(=O)C(F)(F)F)C(F)(F)F showed a mass density of 1463.98 ± 1.6 kg/m3.
In the case of CC(=O)[NH+](C)C.O=S(=O)([N-]S(=O)(=O)C(F)(F)F)C(F)(F)F [N,N-dimethylacetamidium bis(trifluoromethanesulfonyl)amide], the mass density is reported as 1508.1 ± 1.6 kg/m3.
For CC(=O)N(C)C [N,N-dimethylethanamide], the mass density was 884.9 ± 0.91 kg/m3.
Compound CCC(=O)N(C)C [N,N-dimethylpropionamide] has a mass density of 871.11 ± 3.5 kg/m3.
CN(C)C=O [dimethylformamide] showed a mass density of 890.57 ± 0.15 kg/m3.

Same assay, conditions: 363.15 K; 101.33 kPa; Liquid; Concentric cylinders viscometry
Compound CCC(=O)[NH+](C)C.O=S(=O)([N-]S(=O)(=O)C(F)(F)F)C(F)(F)F has a viscosity of 12.28 ± 0.26 mPa·s.
CC(=O)[NH+](C)C.O=S(=O)([N-]S(=O)(=O)C(F)(F)F)C(F)(F)F [N,N-dimethylacetamidium bis(trifluoromethanesulfonyl)amide] showed a viscosity of 13.51 ± 0.28 mPa·s.
For CC(=O)N(C)C [N,N-dimethylethanamide], the viscosity was 0.459 ± 0.011 mPa·s.
Compound CCC(=O)N(C)C [N,N-dimethylpropionamide] has a viscosity of 0.46 ± 0.011 mPa·s.
CN(C)C=O [dimethylformamide] showed a viscosity of 0.398 ± 0.009 mPa·s.

Same assay, conditions: 363.15 K; 101.33 kPa; Liquid; Vibrating tube method
For CCC(=O)[NH+](C)C.O=S(=O)([N-]S(=O)(=O)C(F)(F)F)C(F)(F)F, the mass density was 1453.97 ± 1.6 kg/m3.
CC(=O)[NH+](C)C.O=S(=O)([N-]S(=O)(=O)C(F)(F)F)C(F)(F)F [N,N-dimethylacetamidium bis(trifluoromethanesulfonyl)amide] gave a mass density of 1497.8 ± 1.6 kg/m3.
For CC(=O)N(C)C [N,N-dimethylethanamide], the mass density was 875.43 ± 0.9 kg/m3.
CCC(=O)N(C)C [N,N-dimethylpropionamide] gave a mass density of 861.99 ± 3.5 kg/m3.
In the case of CN(C)C=O [dimethylformamide], the mass density is reported as 880.65 ± 0.15 kg/m3.
